Source: article PMC5746462 (Journal of medicinal chemistry, 2017)

How the values were obtained:
[1] = male, Swiss Albino, mouse, in vivo, 10 mg/kg
in vivo = conditions: male, Swiss Albino, mouse, po, 10 mg/kg

For `CC(C)(C)n1nc(Oc2cccc(Cl)c2)c2c(N)ncnc21` [Compound 2], the “%F (oral availability)” value [1] was 31% and the bioavailability (in vivo) was 25 to 30%.
